Data on eight compounds can be found in EP0904269B1, “3,4-DIARYL-2-HYDROXY-2,5-DIHYDROFURANS AS PRODRUGS TO COX-2 INHIBITORS” (Merck Frosst Canada & Co., priority 1995, dated 1997).

The structures appear in SMILES notation.

This experiment deals with Rat Paw Edema. Briefly: Rat paw edema assay (carrageenan-induced). As to conditions: dose of prodrug, po, required to reduce edema formation by 50% as compared to the vehicle control. It counts as in vivo, Male Sprague-Dawley rats. As to the method: Male Sprague-Dawley rats (150-200 g) are fasted overnight and are given, po, either vehicle (1% methocel or 5% Tween 80) or a test compound. One hr later, a line is drawn using a permanent marker at the level above the ankle in one hind paw to define the area of the paw to be monitored. The paw volume (V0) is measured using a plethysmometer (Ugo-Basile, Italy) based on the principle of water displacement. The animals are then injected subplantarly with 50 µl of 1% carrageenan solution in saline (FMC Corp, Maine) into the paw using an insulin syringe with a 25-gauge needle (i.e. 500 µg carrageenan per paw). Three hr later, the paw volume (V3) is measured and the increases in paw volume (V3 - VO) are calculated. The animals are sacrificed by CO2 asphyxiation and the absence or presence of stomach lesions scored. Data is compared with the vehicle-control values and percent inhibition calculated. All treatment groups are coded to eliminate observer bias.
Compounds of the present invention are prodrugs of inhibitors of COX-2 and are thereby useful in the treatment of COX-2 mediated diseases as enumerated above. The extent of conversion of these compounds to the active COX-2 inhibitors may be seen in the representative results shown below along with their antiinflammatory activity. The plasma levels indicated are the maximum rat plasma concentrations of the active COX-2 inhibitor observed when the rat was treated with a 20 mg/kg oral dose of the indicated prodrug. The ED50 values in the rat paw edema assay represent the dose of prodrug required to reduce edema formation by 50% as compared to the vehicle control.

By ED50 is commonly meant the dose that gives a 50% effect, or the effect in half of the subjects. Turning to `CC1(C)OC(O)C(c2cccc(F)c2)=C1c1ccc(S(C)(=O)=O)cc1` (centres unmarked) [Example 1, 5,5-Dimethyl-3-(3-fluorophenyl)-2-hydroxy-4-(4-methylsulfonylphenyl)-2.5-dihydrofuran], the ED50 was determined as 2.5 mg/kg.
The same measure for `CC1(C)OC(O)C(c2cc(F)cc(F)c2)=C1c1ccc(S(C)(=O)=O)cc1` (centres unmarked) [Example 2, 3-(3,5-Difluorophenyl)-5,5-dimethyl-2-hydroxy-4-(4-(methylsulfonyl)phenyl)-2,5-dihydrofuran]: 0.7 mg/kg.
As for `CC1(C)OC(O)C(Oc2cccc(F)c2)=C1c1ccc(S(C)(=O)=O)cc1` (centres unmarked) [Example 9, 5.5-Dimethyl-3-(3-fluorophenoxy)-2-hydroxy-4-(4-(methylsulfonyl)phenyl)-2,5-dihydrofuran], the ED50 was found to be 1.7 mg/kg.
As to `CC1(C)OC(O)C(Oc2ccc(F)c(F)c2)=C1c1ccc(S(C)(=O)=O)cc1` (centres unmarked) [Example 10, 5.5-Dimethyl-3-(3,4-difluorophenoxy)-2-hydroxy-4-(4-(methylsulfonyl)phenyl)-2.5-dihydrofuran], the ED50 came to 0.09 mg/kg.
As for `CS(=O)(=O)c1ccc(C2=C(c3ccccc3)C(O)CC2)cc1` (centres unmarked) [Example 13, 3-(4-(Methylsulfonyl)phenyl)-2-phenyl-2-cyclopenten-1-ol], the ED50 worked out at 0.9 mg/kg.
Consider `CC(C)OC1=C(c2ccc(S(C)(=O)=O)cc2)C(C)(C)OC1O` (centres unmarked) [Example 39, 3-Isopropoxy-5,5-dimethyl-4-(4-methylsulfonylphenyl)-2,5-dihydrofuran-2-ol], for which the ED50 came to 2.7 mg/kg.
As to `CS(=O)(=O)c1ccc(C2=C(c3cccnc3)C(O)CC2)cc1` (centres unmarked) [Example 40, 3-(4-Methylsulfonylphenyl)-2-(3-pyridinyl)-2-cyclopenten-1-ol], the ED50 came to 1.5 mg/kg.
For `CC(OC1=C(c2ccc(S(C)(=O)=O)cc2)C(C)(C)OC1O)C1CC1` (centres unmarked) [Example 44, 3-(1-Cyclopropylethoxy)-5,5-dimethyl-4-(4-methylsulfonylphenyl)-2,5-dihydrofuran-2-ol] the value was 1.6 mg/kg.
